Laboratory results: paper doi:10.1101/2023.11.09.566408v1 (bioRxiv, 2023)

Experiments:
[1] = type: in vivo, mice; conditions: male, Swiss, mouse, plasma, po, 100 ug
[2] = rats, IV, cited from earlier work

SMILES: CC[C@H](C)[C@H](NC(=O)[C@@H]1CCCN1C(=O)CNC(=O)[C@H](Cc1ccccc1)NC(=O)[C@H](CC(N)=O)NC(=O)[C@H](CC(N)=O)NC(=O)[C@H](CO)NC(=O)[C@H](CO)NC(=O)[C@H](Cc1c[nH]cn1)NC(=O)[C@@H](NC(=O)[C@H](CC(C)C)NC(=O)[C@H](Cc1ccccc1)NC(=O)[C@H](CC(N)=O)NC(=O)[C@H](C)NC(=O)[C@H](CC(C)C)NC(=O)[C@H](CCCNC(=N)N)NC(=O)[C@H](CCC(N)=O)NC(=O)[C@@H](NC(=O)[C@H](C)NC(=O)[C@@H]1CSSC[C@H](NC(=O)[C@@H](N)CCCCN)C(=O)N[C@@H](CC(N)=O)C(=O)N[C@@H]([C@@H](C)O)C(=O)N[C@@H](C)C(=O)N[C@@H]([C@@H](C)O)C(=O)N1)[C@@H](C)O)C(C)C)C(=O)N[C@@H](CC(C)C)C(=O)N1CCC[C@H]1C(=O)N1CCC[C@H]1C(=O)N[C@H](C(=O)N[C@@H](CC(N)=O)C(=O)N[C@H](C(=O)NCC(=O)N[C@@H](CO)C(=O)N[C@@H](CC(N)=O)C(=O)N[C@H](C(=O)N[C@@H](Cc1ccc(O)cc1)C(N)=O)[C@@H](C)O)C(C)C)[C@@H](C)O [pramlintide]
- Tmax [1]: 30 min
- plasma concentration ([2]; 1 μg): 1,000 pM
- plasmatic concentration ([2]; 10 μg): 10,000 pM
